From patent US9758527B2, “Cyclohexene derivative, preparation method therefor, and pharmaceutical composition for preventing or treating metabolic diseases, containing same as active ingredient” (HYUNDAI PHARM CO., LTD., priority 2014, dated 2017)
Counter-ions that a name gives are not always drawn. Like-named read-outs stand apart in the source and are kept apart here.

Molecular target: T1, G protein-coupled receptor 119 (GPR-119) (Mesocricetus auratus, UniProt A0A1U8CD06)
T1 construct: hamster-derived β-cells containing G protein-coupled receptor 119 (GPR-119), HIT-T15 cells; host or cells: HIT-T15 (hamster pancreatic β-cells)
T1 sequence (A0A1U8CD06 1-334): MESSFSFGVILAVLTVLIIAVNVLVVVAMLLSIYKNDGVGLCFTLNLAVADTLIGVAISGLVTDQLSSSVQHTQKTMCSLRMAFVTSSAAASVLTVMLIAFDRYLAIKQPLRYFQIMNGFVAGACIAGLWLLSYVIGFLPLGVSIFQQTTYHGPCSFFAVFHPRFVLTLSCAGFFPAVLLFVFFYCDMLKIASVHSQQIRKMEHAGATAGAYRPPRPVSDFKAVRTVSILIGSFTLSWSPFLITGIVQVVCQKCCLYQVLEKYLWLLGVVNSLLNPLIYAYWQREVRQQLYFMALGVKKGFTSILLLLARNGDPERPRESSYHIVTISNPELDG
Assay: Evaluation of cAMP activity in HIT-T15 cells (HTRF cAMP dynamic kit)
Type: cell-based, hamster
Conditions: cAMP activation
How it was run: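 HIT-T15 cells, 60,000/well, treated next day with compound at six concentrations ([…]) for 1 h at 37° C. Lysate cAMP quantified by HTRF competitive immunoassay (D2-cAMP, cryptate anti-cAMP); activity taken as change in FRET signal relative to DMSO.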

[1] = 1 h at 37° C., six concentrations, read-out: EC50

Compound | EC50 [1] | EC50 (read-out: EC50 value)
CCc1cnc(N2CCC(COc3ccc(C4=CCC(C(=O)N5CC[C@H](CO)C5)CC4)cc3)CC2)nc1 (stereo partly drawn) [Example 158, (4-(4-((1-(5-ethylpyrimidin-2-yl)piperidin-4-yl)methoxy)phenyl)cyclohex-3-enyl)((S)-3-(hydroxymethyl)pyrrolidin-1-yl)methanone hydrochloride] | 25 nM | 
CCc1cnc(N2CCC(COc3ccc(C4=CCC(C(=O)N5CC[C@@H](CO)C5)CC4)cc3)CC2)nc1 (stereo partly drawn) [Example 159, (4-(4-((1-(5-ethylpyrimidin-2-yl)piperidin-4-yl)methoxy)phenyl)cyclohex-3-enyl)((R)-3-(hydroxymethyl)pyrrolidin-1-yl)methanone hydrochloride] | 20 nM | ≤ 50 nM
CCc1cnc(N2CCC(COc3ccc(C4=CCC(C(=O)N5CC[C@H](F)C5)CC4)cc3)CC2)nc1 (stereo partly drawn) [Example 160, (4-(4-((1-(5-ethylpyrimidin-2-yl)piperidin-4-yl)methoxy)phenyl)cyclohex-3-enyl)((S)-3-fluoropyrrolidin-1-yl)methanone] | 14 nM | ≤ 50 nM
CCc1cnc(N2CCC(COc3ccc(C4=CCC(C(=O)N5CC[C@H](F)C5)CC4)cc3)CC2)nc1 (stereo partly drawn) [Example 161, (4-(4-((1-(5-ethylpyrimidin-2-yl)piperidin-4-yl)methoxy)phenyl)cyclohex-3-enyl)((S)-3-fluoropyrrolidin-1-yl)methanone hydrochloride] | 6 nM | 
CCc1cnc(N2CCC(COc3ccc(C4=CCC(C(=O)N5CCCC5)CC4)cc3)CC2)nc1 (centres unmarked) [Example 162, (4-(4-((1-(5-ethylpyrimidin-2-yl)piperidin-4-yl)methoxy)phenyl)cyclohex-3-enyl)(pyrrolidin-1-yl)methanone] | 27 nM | ≤ 50 nM
CCc1cnc(N2CCC(COc3ccc(C4=CCC(C(=O)N5CCCCC5)CC4)cc3)CC2)nc1 (centres unmarked) [Example 163, (4-(4-((1-(5-ethylpyrimidin-2-yl)piperidin-4-yl)methoxy)phenyl)cyclohex-3-enyl)(piperidin-1-yl)methanone] | 7 nM | ≤ 50 nM
CCc1cnc(N2CCC(COc3ccc(C4=CCC(C(=O)N5CCC(O)CC5)CC4)cc3)CC2)nc1 (centres unmarked) [Example 164, (4-(4-((1-(5-ethylpyrimidin-2-yl)piperidin-4-yl)methoxy)phenyl)cyclohex-3-enyl)(4-hydroxypiperidin-1-yl)methanone] | 16 nM | ≤ 50 nM
CCc1cnc(N2CCC(COc3ccc(C4=CCC(C(=O)N5CCC(CO)CC5)CC4)cc3)CC2)nc1 (centres unmarked) [Example 165, (4-(4-((1-(5-ethylpyrimidin-2-yl)piperidin-4-yl)methoxy)phenyl)cyclohex-3-enyl)(4-(hydroxymethyl)piperidin-1-yl)methanone] | 7 nM | ≤ 50 nM
CCc1cnc(N2CCC(COc3ccc(C4=CCC(C(=O)N5CCCC5)CC4)cc3)CC2)nc1 (centres unmarked) [Example 166, (4-(4-((1-(5-ethylpyrimidin-2-yl)piperidin-4-yl)methoxy)phenyl)cyclohex-3-enyl)(pyrrolidin-1-yl)methanone hydrochloride] | 22 nM | 
CCc1cnc(N2CCC(COc3ccc(C4=CCC(C(=O)N5CCCCC5)CC4)cc3)CC2)nc1 (centres unmarked) [Example 167, (4-(4-((1-(5-ethylpyrimidin-2-yl)piperidin-4-yl)methoxy)phenyl)cyclohex-3-enyl)(piperidin-1-yl)methanone hydrochloride] | 14 nM | 
CCc1cnc(N2CCC(COc3ccc(C4=CCC(C(=O)N5CCN(CCO)CC5)CC4)cc3)CC2)nc1 (centres unmarked) [Example 172, (4-(4-((1-(5-ethylpyrimidin-2-yl)piperidin-4-yl)methoxy)phenyl)cyclohex-3-enyl)(4-(2-hydroxyethyl)piperazin-1-yl)methanone] | 38 nM | 
CCc1cnc(N2CCC(COc3ccc(C4=CCC(C(=O)N5CCC(CCO)CC5)CC4)cc3)CC2)nc1 (centres unmarked) [Example 173, (4-(4-((1-(5-ethylpyrimidin-2-yl)piperidin-4-yl)methoxy)phenyl)cyclohex-3-enyl)(4-(2-hydroxyethyl)piperidin-1-yl)methanone] | 18 nM | 
CCc1cnc(N2CCC(COc3ccc(C4=CCC(C(=O)N(CC)CCO)CC4)cc3)CC2)nc1 (centres unmarked) [Example 175, N-ethyl-4-(4-((1-(5-ethylpyrimidin-2-yl)piperidin-4-yl)methoxy)phenyl)-N-(2-hydroxyethyl)cyclohex-3-enecarboxamide] | 7 nM | ≤ 50 nM
CCc1cnc(N2CCC(COc3ccc(C4=CCC(C(=O)NCC(C)(C)CO)CC4)cc3)CC2)nc1 (centres unmarked) [Example 177, 4-(4-((1-(5-ethylpyrimidin-2-yl)piperidin-4-yl)methoxy)phenyl)-N-(3-hydroxy-2,2-dimethylpropyl)cyclohex-3-enecarboxamide] | 38 nM | 
CCc1cnc(N2CCC(COc3ccc(C4=CCC(C(=O)N(CCO)CCO)CC4)cc3)CC2)nc1 (centres unmarked) [Example 181, 4-(4-((1-(5-ethylpyrimidin-2-yl)piperidin-4-yl)methoxy)phenyl)-N,N-bis(2-hydroxyethyl)cyclohex-3-enecarboxamide] | 24 nM | ≤ 50 nM
CC(C)c1noc(N2CCC(COc3ccc(C4=CCC(C(=O)N5CCC(O)CC5)CC4)cc3)CC2)n1 (centres unmarked) [Example 182, (4-hydroxypiperidin-1-yl)(4-(4-((1-(3-isopropyl-1,2,4-oxadiazol-5-yl)piperidin-4-yl)methoxy)phenyl)cyclohex-3-enyl)methanone] | 27 nM | ≤ 50 nM
CC(C)c1noc(N2CCC(COc3ccc(C4=CCC(C(=O)N5CCC(CO)CC5)CC4)cc3)CC2)n1 (centres unmarked) [Example 183, (4-(hydroxymethyl)piperidin-1-yl)(4-(4-((1-(3-isopropyl-1,2,4-oxadiazol-5-yl)piperidin-4-yl)methoxy)phenyl)cyclohex-3-enyl)methanone] | 12 nM | ≤ 50 nM
CC(C)c1noc(N2CCC(COc3ccc(C4=CCC(C(=O)N5CCC(CCO)CC5)CC4)cc3)CC2)n1 (centres unmarked) [Example 186, (4-(2-hydroxyethyl)piperidin-1-yl)(4-(4-((1-(3-isopropyl-1,2,4-oxadiazol-5-yl)piperidin-4-yl)methoxy)phenyl)cyclohex-3-enyl)methanone] |  | ≤ 50 nM
CC(C)(C)OC(=O)N1CCC(COc2ccc(C3=CCC(C(=O)NC4CCCC4)CC3)cc2)CC1 (centres unmarked) [Example 195, tert-butyl 4-((4-(4-(cyclopentylcarbamoyl)cyclohex-1-enyl)phenoxy)methyl)piperidine-1-carboxylate] | 28 nM | ≤ 50 nM
CCc1cnc(N2CCC(COc3ccc(C4=CCC(C(=O)N(C)OC)CC4)cc3)CC2)nc1 (centres unmarked) [Example 197, 4-(4-((1-(5-ethylpyrimidin-2-yl)piperidin-4-yl)methoxy)phenyl)-N-methoxy-N-methylcyclohex-3-enecarboxamide] | 18 nM | ≤ 50 nM
CC(C)(C)OC(=O)N1CCC(COc2ccc(C3=CCC(C(=O)N4CCCC4)CC3)cc2)CC1 (centres unmarked) [Example 202, tert-butyl 4-((4-(4-(pyrrolidine-1-carbonyl)cyclohex-1-enyl)phenoxy)methyl)piperidine-1-carboxylate] | 24 nM | ≤ 50 nM
CCN1CCN(C(=O)C2CC=C(c3ccc(OCC4CCN(C(=O)OC(C)(C)C)CC4)cc3)CC2)CC1 (centres unmarked) [Example 203, tert-butyl 4-((4-(4-(4-ethylpiperazine-1-carbonyl)cyclohex-1-enyl)phenoxy)methyl)piperidine-1-carboxylate] | 37 nM | 
CC(C)c1noc(N2CCC(COc3ccc(C4=CCC(C(=O)N5CCc6ccccc6C5C)CC4)cc3)CC2)n1 (centres unmarked) [Example 213, (4-(4-((1-(3-isopropyl-1,2,4-oxadiazol-5-yl)piperidin-4-yl)methoxy)phenyl)cyclohex-3-enyl)(1-methyl-3,4-dihydroisoquinolin-2(1H)-yl)methanone] | 24 nM | ≤ 50 nM
CCc1cnc(N2CCC(COc3ccc(C4=CCC(C(=O)N5CCC(N6CCOCC6)CC5)CC4)cc3)CC2)nc1 (centres unmarked) [Example 220, (4-(4-((1-(5-ethylpyrimidin-2-yl)piperidin-4-yl)methoxy)phenyl)cyclohex-3-enyl)(4-morpholinopiperidin-1-yl)methanone] | 40 nM | ≤ 50 nM
CON(C)C(=O)C1CC=C(c2ccc(OCC3CCN(C(=O)OC(C)(C)C)CC3)cc2)CC1 (centres unmarked) [Example 223, tert-butyl 4-((4-(4-(methoxy(methyl)carbamoyl)cyclohex-1-enyl)phenoxy)methyl)piperidine-1-carboxylate] | 25 nM | ≤ 50 nM
CC(C)(C)OC(=O)N1CCC(COc2ccc(C3=CCC(C(=O)N4CC=CC4)CC3)cc2)CC1 (centres unmarked) [Example 224, tert-butyl 4-((4-(4-(2,5-dihydro-1H-pyrrole-1-carbonyl)cyclohex-1-enyl)phenoxy)methyl)piperidine-1-carboxylate] | 38 nM | ≤ 50 nM
CC(C)(C)OC(=O)N1CCC(COc2ccc(C3=CCC(C(=O)N4CCC(O)CC4)CC3)cc2)CC1 (centres unmarked) [Example 225, tert-butyl 4-((4-(4-(4-hydroxypiperidine-1-carbonyl)cyclohex-1-enyl)phenoxy)methyl)piperidine-1-carboxylate] | 22 nM | ≤ 50 nM
CC(C)(C)OC(=O)N1CCC(COc2ccc(C3=CCC(C(=O)N4CCC(CO)CC4)CC3)cc2)CC1 (centres unmarked) [Example 226, tert-butyl 4-((4-(4-(4-(hydroxymethyl)piperidine-1-carbonyl)cyclohex-1-enyl)phenoxy)methyl)piperidine-1-carboxylate] | 14 nM | ≤ 50 nM
